Read-outs that look alike come from different tables or passages of the source. Square brackets hold non-standard residues; d marks the D form. Peptide text beside a SMILES is read from it.
Columns and labels:
[1] = tested on: HMLER‐shEcad tumorspheres; experiment: cells; assay type: cell-based, human; settings: Homo sapiens
MCF‐10A mammospheres = experiment: Mammosphere viability assay (TOX8); assay type: cell-based, human; settings: for D‐enantiomer average IC90 against MCF‐10A mammospheres: one average for d‐DHK and d‐EEK together
HEK293T = experiment: cells; assay type: cell-based, human
HMLER = experiment: cells; assay type: cell-based, human
Excerpt: (§1) […], and MCF-10A cells were maintained in MEGM with supplements and growth factors bovine pituitary extract, hydrocortisone, human epidermal growth factor, insulin, and gentamicin/amphotericin-B.

MCF‐10A = experiment: cells; assay type: cell-based, human
Excerpt: as §1

HMLER‐shEcad = experiment: cells; assay type: cell-based, human
Excerpt: as §1

human red blood cells = experiment: Haemolysis (human red blood cells); assay type: cell-based; settings: PBS, 37 °C, 1 h, one value for DHK, d‐DHK and d‐EEK together
Experimental: Fresh human red blood cells were obtained from Interstate Blood Bank, Inc., and thoroughly washed in PBS until the supernatant was clear. The peptide was serially diluted in PBS starting at a concentration of 200 µM. […] As a positive lysis control, 1% triton was used. […] After centrifugation, 10 µL of supernatant was transferred to 90 µL of ddH2O in a fresh 96‐well plate.

U2OS = assay type: cell-based, human; settings: 2D culture, MTT, 72 h incubation; library peptides n = 2; D-enantiomers and small molecules replicated six times; read-out: IC50 (µM) U2OS
[2] = non-cancerous cells, 2D culture, MTT, 72 h incubation, library peptides n = 2, D-enantiomers and small molecules replicated six times, read-out: IC50 (µM) HEK293T
[3] = 2D culture, MTT, 72 h incubation, library peptides average of two independent experiments (n = 2), D-enantiomers and small molecules replicated six times, read-out: IC50 (µM) HMLER
[4] = non-cancerous cells, 2D culture, MTT, 72 h incubation, library peptides n = 2, D-enantiomers and small molecules replicated six times, read-out: IC50 (µM) MCF-10A
[5] = 2D culture, MTT, 72 h incubation, library peptides average of two independent experiments (n = 2), D-enantiomers and small molecules replicated six times, read-out: IC50 (µM) HMLER-shEcad

How did the IC50 ([1]; 120 h, read-out: IC50 against HMLER‐shEcad tumorspheres) turn out when `CC[C@@H](C(=O)[C@@H](C)[C@@H](O)[C@H](C)[C@@H]1O[C@@H]([C@@H](CC)C(=O)O)CC[C@@H]1C)[C@H]1O[C@]2(C=C[C@@H](O)[C@]3(CC[C@@](C)([C@H]4CC[C@](O)(CC)[C@H](C)O4)O3)O2)[C@H](C)C[C@@H]1C` [Salinomycin, salinomycin, reference compound] was run?
The IC50 was 22000 ± 5000 nM.

And the IC90 ([1]; read-out: IC90 against HMLER‐shEcad tumorspheres)?
Its IC90 is 44000 ± 17000 nM.

And the “IC90 against MCF‐10A mammospheres” value (MCF‐10A mammospheres)?
The value was 34000 ± 20000 nM.

What about the IC50 (HEK293T; Homo sapiens, HEK-293T, 72 h, read-out: IC50 (µM) HEK293T, non-cancerous cells, 2D culture, MTT, 72 h incubation, library peptides n = 2, D-enantiomers and small molecules replicated six times) of the same molecule?
Its IC50 is 0.41 ± 0.1 µM.

And the IC50 (HEK293T; Homo sapiens, HEK-293T, read-out: IC50 of salinomycin co‐administered with DHK, HEK293T, with […] DHK)?
Its IC50 is 0.1 µM.

And the IC50 (HEK293T; read-out: IC50 (µM) HEK293T, non-cancerous cells, 2D culture, MTT, 72 h incubation, library peptides n = 2, D-enantiomers and small molecules replicated six times)?
The IC50 was 0.4 ± 0.1 µM.

What about the IC50 (HMLER; Homo sapiens, 72 h, read-out: IC50 (µM) HMLER, 2D culture, MTT, 72 h incubation, library peptides average of two independent experiments (n = 2), D-enantiomers and small molecules replicated six times) of the same molecule?
Its IC50 is 0.37 ± 0.08 µM.

And the IC50 (HMLER; Homo sapiens, read-out: IC50 of salinomycin co‐administered with DHK, HMLER, with […] DHK)?
The IC50 was 0.05 µM.

And the “increase in anticancer efficiency” value (HMLER; addition of 5 µM DHK)?
The value was 100 fold.

And the IC50 (HMLER; read-out: IC50 (µM) HMLER, 2D culture, MTT, 72 h incubation, library peptides average of two independent experiments (n = 2), D-enantiomers and small molecules replicated six times)?
The IC50 was 0.4 ± 0.1 µM.

What about the cancer cell viability (HMLER; with 5 µM DHK, at the lowest dose of salinomycin) of the same molecule?
Its cancer cell viability is < 1%.

And the “factor by which the dosage of salinomycin required to kill cells is reduced” value (HMLER; with […] DHK, both HMLER and HMLER‐shEcad)?
The value was 8–27.

And the IC50 (MCF‐10A; Homo sapiens, MCF-10A, 72 h, read-out: IC50 (µM) MCF-10A, non-cancerous cells, 2D culture, MTT, 72 h incubation, library peptides n = 2, D-enantiomers and small molecules replicated six times)?
Its IC50 is 9.76 ± 2.28 µM.

And the IC50 (MCF‐10A; Homo sapiens, MCF-10A, read-out: IC50 of salinomycin co‐administered with DHK, MCF‐10A, with […] DHK)?
Its IC50 is 1.7 µM.

What about the IC50 (MCF‐10A; read-out: IC50 (µM) MCF-10A, non-cancerous cells, 2D culture, MTT, 72 h incubation, library peptides n = 2, D-enantiomers and small molecules replicated six times) of the same molecule?
The IC50 was 9.7 ± 2.3 µM.

And the IC50 (HMLER‐shEcad; Homo sapiens, 72 h, read-out: IC50 (µM) HMLER-shEcad, 2D culture, MTT, 72 h incubation, library peptides average of two independent experiments (n = 2), D-enantiomers and small molecules replicated six times)?
The IC50 was 0.92 ± 0.28 µM.

What about the IC50 (HMLER‐shEcad; Homo sapiens, read-out: IC50 of salinomycin co‐administered with DHK, HMLER‐shEcad, with […] DHK) of the same molecule?
The IC50 was 0.03 µM.

What about the IC50 (HMLER‐shEcad; read-out: IC50 (µM) HMLER-shEcad, 2D culture, MTT, 72 h incubation, library peptides average of two independent experiments (n = 2), D-enantiomers and small molecules replicated six times) of the same molecule?
The IC50 was 0.9 ± 0.3 µM.

For `CC(C)C[C@@H](NC(=O)CN)C(=O)N[C@H](CC(C)C)C(=O)N[C@H](CC(=O)O)C(=O)N[C@H](CC(C)C)C(=O)N[C@H](CC(C)C)C(=O)N[C@H](Cc1c[nH]cn1)C(=O)N[C@H](CC(C)C)C(=O)N[C@H](CC(C)C)C(=O)N[C@H](CC(C)C)C(=O)N[C@H](CCCCN)C(=O)N[C@H](C)C(=O)N[C@H](C)C(=O)NCC(=O)N[C@H](Cc1c[nH]c2ccccc12)C(N)=O` [d-DHK] (H-G[dL][dL][dD][dL][dL][dH][dL][dL][dL][dK][dA][dA]G[dW]-NH2), which “D‐enantiomer average IC90 against MCF‐10A mammospheres” value (MCF‐10A mammospheres) is on record?
The value was 8000 ± 5000 nM.

What about the IC50 (HEK293T; [2]) of the same molecule?
The IC50 was 1.55 ± 0.37 µM.

What about the IC50 (HMLER; [3]) of the same molecule?
The IC50 was 0.32 ± 0.07 µM.

And the IC50 (MCF‐10A; [4])?
The IC50 was 0.55 ± 0.06 µM.

What about the IC50 (HMLER‐shEcad; [5]) of the same molecule?
Its IC50 is 0.23 ± 0.04 µM.

And the IC50 (HMLER‐shEcad; one value printed for each pair of peptides, cell line not given, read-out: IC50 (anticancer activity))?
Its IC50 is 0.3 ± 0.1 µM.

And the HC50 (human red blood cells)?
Its HC50 is 14 ± 5 µM.

What about the IC50 (U2OS) of the same molecule?
Its IC50 is 1.24 ± 0.03 µM.

How did the “D‐enantiomer average IC90 against MCF‐10A mammospheres” value (MCF‐10A mammospheres) turn out when `CC(C)C[C@@H](NC(=O)CN)C(=O)N[C@H](CC(C)C)C(=O)N[C@H](CCC(=O)O)C(=O)N[C@H](CC(C)C)C(=O)N[C@H](CC(C)C)C(=O)N[C@H](CCC(=O)O)C(=O)N[C@H](CC(C)C)C(=O)N[C@H](CC(C)C)C(=O)N[C@H](CC(C)C)C(=O)N[C@H](CCCCN)C(=O)N[C@H](C)C(=O)N[C@H](C)C(=O)NCC(=O)N[C@H](Cc1c[nH]c2ccccc12)C(N)=O` [d-EEK] (H-G[dL][dL][dE][dL][dL][dE][dL][dL][dL][dK][dA][dA]G[dW]-NH2) was run?
The value was 8000 ± 5000 nM.

And the IC50 (HEK293T; [2])?
Its IC50 is 2.82 ± 0.07 µM.

And the IC50 (HMLER; [3])?
The IC50 was 0.29 ± 0.01 µM.

And the IC50 (MCF‐10A; [4])?
Its IC50 is 1.07 ± 0.1 µM.

What about the IC50 (HMLER‐shEcad; [5]) of the same molecule?
The IC50 was 0.29 ± 0.01 µM.

What about the IC50 (HMLER‐shEcad; 2D culture, read-out: IC50, HMLER-shEcad cell viability, compound alone) of the same molecule?
Its IC50 is 0.3 ± 0.1 µM.

What about the IC50 (HMLER‐shEcad; read-out: IC50, HMLER-shEcad cell viability, together with 5 µM caspase inhibitor z-VAD-FMK, 2D culture, co-incubation with 5 µM z-VAD-FMK) of the same molecule?
Its IC50 is 0.3 ± 0.1 µM.

And the HC50 (human red blood cells)?
Its HC50 is 14 ± 5 µM.

And the IC50 (U2OS)?
Its IC50 is 4.78 ± 0.02 µM.

Reference: paper PMC9069370, “Integrated Design of a Membrane‐Lytic Peptide‐Based Intravenous Nanotherapeutic Suppresses Triple‐Negative Breast Cancer” (Advanced Science, 2022)
